Format in all cases: cell-based, human
For assay [1], the system named is PKR-overexpressing Namalwa cells (Nam-PKR), TNF-alpha production. Put plainly: TNF-alpha production in PMA/poly I:C-induced PKR-overexpressing Namalwa cells (ELISA). The following applies: 1 mM 2-AP, 20 mM PMA priming 20 hr, 200 μg/ml poly I:C induction 3 days, FIG. 2A. How it is done: (§1) PKR-transfected Namalwa cells (Nam-PKR) were cultured at 2.5×10^5 cells/ml in DMEM/F12 medium supplemented with 10% FBS. The cells were treated with 20 mM PMA (priming) for 20 hr followed by treatment with 200 μg/ml poly I:C (induction) for 3 days in the presence of 1 mM 2-aminopurine (2-AP) or in the absence of 2-AP. One set of cells was left untreated (non-induced controls). Following treatment, the culture supernatants were collected and analyzed for TNF-alpha or for TNF-beta by ELISA according to the procedure provided by the supplier of the ELISA kits (R&D Systems). The data for cytokine induction is shown in FIGS. 2A and 2B, which illustrates that the PKR-overexpressing Namalwa cell line produces a high level of proinflammatory cytokine (TNF-alpha) under induction conditions (FIG. 2A) and that the induced levels of TNF-alpha are about 4-fold lower in the presence of the PKR inhibitor, 2-AP.
In general terms: ELISA stands for enzyme-linked immunosorbent assay.

The subject of assay [2] is PKR-overexpressing Namalwa cells (Nam-PKR), TNF-beta production. Put plainly: TNF-beta production in PMA/poly I:C-induced PKR-overexpressing Namalwa cells (ELISA). The following applies: 1 mM 2-AP; 20 mM PMA priming 20 hr, 200 μg/ml poly I:C induction 3 days; FIG. 2B. The procedure:
as §1

The subject of assay [3] is PKR-overexpressing Namalwa cells (Nam-PKR), IFN-alpha production. Put plainly: Dose-response inhibition of IFN-alpha production in PMA and poly r(I):poly r(C) treated PKR-overexpressing Namalwa cells. The following applies: FIG. 3.

With `Nc1ncc2[nH]cnc2n1` [2-AP, 2-aminopurine], the “suppression of TNF-alpha production level, with vs without the PKR inhibitor” value is on record as “about 4 fold” in assay [1] and 4 fold in assay [1] (listed as 2 AP). Further, the “suppression of TNF-beta production level, with vs without the PKR inhibitor” value in assay [2] stood at 5 fold. The “inhibition of IFN-alpha production at 1 mM (in words)” value in assay [3] (1 mM 2-AP, both experiments) is “relatively ineffective”. The “inhibition of IFN-alpha production at 8 mM (in words)” value in assay [3] (8 mM 2-AP) is on record as “completely inhibited”. In addition, the “inhibition of IFN-alpha at 5 mM relative to 1 mM” value in assay [3] (first experiment) came to 360 fold. Besides, the “inhibition of INF-alpha production between 1 mM and 5 mM” value in assay [3] (second experiment) was found to be 5 fold.

Values taken from patent US6864061B2, “Method for screening compounds for anti-inflammatory activity” (GeneTrol Biotherapeutics, Inc., priority 2000, dated 2005).
